Series [1] has as its system SD rats. Description: Oral glucose tolerance test (OGTT) in rats, first time. Format: in vivo. The following applies: first study, male SD rats, 10 mg/kg single intragastric administration. On the procedure: Experimental Example 3. Study on In Vivo Efficacy of Oral Glucose Tolerance Test (OGTT) in Rats: Study on the In Vivo Efficacy of Oral Glucose Tolerance Test (OGTT) in Rats for the First Time
(§1) The experimental animals were allowed to adapt to the environment in the animal room for one week after they arrived.
(§2) The animals fasted in the metabolic cage for 18 hours, then were given drugs or vehicle (2 ml/kg) according to the above table, and subsequently were immediately given 50% glucose solution (2 g/kg, 4 ml/kg).
(§3) 2 hours after the administration of glucose solution, feed intake was restored. Blood samples were taken at 0 min, 15 min, 30 min, 45 min, 60 min and 120 min respectively, and urine samples were collected at 0-24 h to test blood glucose, urine glucose (mg/200 g) and urine volume respectively.
(§4) All values are represented as averages. Statistical analysis was performed using Graphpad Prism 6 one-way analysis of variance and Tukey's multiple comparison test. P value of less than 0.05 is considered statistically significant.

Series [2] relates to SD rats. Description: Oral glucose tolerance test (OGTT) in rats, second time. In kind it is in vivo. To be noted: second study, male SD rats, 10 mg/kg single intragastric administration. The procedure: Study on the In Vivo Efficacy of Oral Glucose Tolerance Test (OGTT) in Rats for the Second Time:
as §1, §2, §3, §4

The target of series [3] is T1, Human-SGLT2 (Homo sapiens, UniProt P31639).
T1 sequence (P31639 1-672): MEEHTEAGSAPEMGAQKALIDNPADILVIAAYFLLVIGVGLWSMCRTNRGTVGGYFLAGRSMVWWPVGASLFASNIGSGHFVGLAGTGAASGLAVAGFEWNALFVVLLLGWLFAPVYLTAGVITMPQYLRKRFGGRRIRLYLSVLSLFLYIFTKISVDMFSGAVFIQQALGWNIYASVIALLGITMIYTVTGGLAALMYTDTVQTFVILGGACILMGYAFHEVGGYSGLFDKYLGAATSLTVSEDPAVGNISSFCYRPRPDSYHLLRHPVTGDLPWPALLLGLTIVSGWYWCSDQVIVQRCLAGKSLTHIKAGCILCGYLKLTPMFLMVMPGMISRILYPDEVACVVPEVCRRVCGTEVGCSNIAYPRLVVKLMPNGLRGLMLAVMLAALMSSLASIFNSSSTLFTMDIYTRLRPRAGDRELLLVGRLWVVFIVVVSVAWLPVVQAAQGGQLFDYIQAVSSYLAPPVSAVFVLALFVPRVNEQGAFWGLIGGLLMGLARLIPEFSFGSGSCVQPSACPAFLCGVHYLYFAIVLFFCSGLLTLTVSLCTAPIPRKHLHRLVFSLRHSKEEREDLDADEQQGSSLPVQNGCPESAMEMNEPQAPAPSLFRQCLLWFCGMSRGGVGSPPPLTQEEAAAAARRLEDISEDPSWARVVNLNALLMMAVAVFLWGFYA
The experiment in a line: SGLT2 glucose transport test ([14C]-labeled methyl a-D-glucopyranoside uptake). In kind it is cell-based. The following applies: cells stably expressing Human-SGLT2; 37° C., 2 hours. The procedure:
Biological Activity Experiment 2: SGLT2 Glucose Transport Test.
(§5) 1. Purpose of the Experiment:
The effect of the compound on the glucose transport activity of SGLT2 transporter was detected by measuring the amount of [^14C]-labeled glucose entering cells with high expression of Human-SGLT2.
The cells stably expressing Human-SGLT2 were constructed by Wuxi AppTec(Shanghai) Co., Ltd. SGLT2 cells were laid in 96-well cell culture plate (Greiner) and cultured overnight in 5% CO2 environment at 37° C.
2.2. SGLT2 Glucose Transport Test.
(§6) 1) Experimental buffer, including: 10 mM 4-hydroxyethylpiperazineethanesulfonic acid (HEPES), 1.2 mM magnesium chloride (MgCl2), 4.7 mM potassium chloride (KCl), 2.2 mM calcium chloride (CaCl2) and 120 mM sodium chloride (NaCl).
2) Stop buffer, including: 10 mM 4-hydroxyethylpiperazineethanesulfonic acid (HEPES), 1.2 mM magnesium chloride (MgCl2), 4.7 mM potassium chloride (KCl), 2.2 mM calcium chloride (CaCl2), 120 mM sodium chloride (NaCl) and 1 μM LX4211.
3) Compounds were serially diluted in 100% dimethyl sulfoxide (DMSO) starting at 10 uM and make a 5-folds, 8 points serials compound dilutions.
4) 6 μM [^14C]-labeled methyl a-D-lucopyranosid was prepared with the experimental buffer.
5) The cells were treated with 49 uL of the experimental buffer, 1 μL of the gradient diluted compound and 50 μL of the 6 μM [^14C]-labeled methyl a-D-lucopyranosid solution at 37° C. for 2 hours.
6) The solution was sucked out from holes, and the cells were rinsed with the stop buffer for 3 times.
7) The cells were lysed with 50 ul of 10% sodium hydroxide solution, the cell lysate was sucked into a scintillation tube, into which 2 mL scintillation solution was then added.
8) The data were read with an isotope detector Tricarb.
9) The IC50 value of the tested compound was obtained by the calculation formula: log(inhibitor) vs. response—Variable slope, using GraphPad Prism 5.0 software.

Series [4] in a line: In vivo pharmacokinetics in rats. The following applies: male SD rats. From the text: Study on the In Vivo Pharmacokinetics in Rats
The purpose of the experiment: Male SD rats were used as test animals and were given a single administration to determine the plasma concentration of the compound and evaluate the pharmacokinetic behavior.
Experimental method: Six healthy adult male SD rats were divided into 2 groups, with 3 rats in an intravenous injection group and 3 rats in an oral administration group. In the intravenous injection group, the test compound was mixed with an appropriate amount of vehicle (10% N-methyl pyrrolidone (NMP)/10% polyethylene glycol-15 hydroxystearate (available from solutol)/80% water), then vortexed and sonicated to prepare 0.2 mg/mL clear solution, which was filtered by microporous membrane. In the oral administration group, 10% N-methyl pyrrolidone (NMP)/10% polyethylene glycol-15 hydroxy stearate (available from solutol)/80% water was used as a vehicle and mixed with the test compound, then vortexed and sonicated to prepare 0.40 mg/mL clear solution. The rats were given intravenous administration at a dose of 1 mg/kg or oral administration at a dose of 2 mg/kg. Whole blood was collected at a certain period of time to prepare the plasma. The drug concentration of the plasma was analyzed by LC-MS/MS method, and the pharmacokinetic parameters were calculated using Phoenix WinNonlin software (Pharsight Company, USA).

Series [5] addresses T2, Human-SGLT1 (Homo sapiens, UniProt P13866).
T2 sequence (P13866 1-664): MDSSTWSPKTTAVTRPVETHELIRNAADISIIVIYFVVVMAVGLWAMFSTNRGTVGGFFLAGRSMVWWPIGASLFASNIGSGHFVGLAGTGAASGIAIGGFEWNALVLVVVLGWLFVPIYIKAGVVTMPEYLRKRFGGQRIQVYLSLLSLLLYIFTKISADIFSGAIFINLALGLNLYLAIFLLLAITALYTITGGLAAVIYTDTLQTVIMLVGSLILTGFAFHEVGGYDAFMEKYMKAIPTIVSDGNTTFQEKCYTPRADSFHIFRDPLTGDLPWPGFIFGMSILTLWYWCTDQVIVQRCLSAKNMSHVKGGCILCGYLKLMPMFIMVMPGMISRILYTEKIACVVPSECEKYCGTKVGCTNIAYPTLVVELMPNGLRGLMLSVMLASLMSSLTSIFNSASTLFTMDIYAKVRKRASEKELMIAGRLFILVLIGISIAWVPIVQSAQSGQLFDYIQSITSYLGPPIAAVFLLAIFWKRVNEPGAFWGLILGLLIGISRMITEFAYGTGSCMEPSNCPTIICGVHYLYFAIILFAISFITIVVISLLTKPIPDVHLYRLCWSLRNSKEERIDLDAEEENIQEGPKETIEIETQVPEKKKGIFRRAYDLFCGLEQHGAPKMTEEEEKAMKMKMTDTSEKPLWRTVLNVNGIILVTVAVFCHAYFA
The experiment in a line: SGLT1 glucose transport test ([14C]-labeled methyl a-D-glucopyranoside uptake). In kind it is cell-based. The following applies: cells stably expressing Human-SGLT1; 37° C., 2 hours.
From the text: Biological Activity Experiment 1: SGLT1 Glucose Transport Test.
as §5
The effect of the compound on the glucose transport activity of SGLT1 transporter was detected by measuring the amount of [′C]-labeled glucose entering cells with high expression of Human-SGLT1.
The cells stably expressing Human-SGLT1 were constructed by Wuxi AppTec(Shanghai) Co., Ltd. SGLT1 cells were laid in Cytostar-T (PerkinElmer) 96-well cell culture plate and cultured overnight in 5% CO2 environment at 37° C.
2.2. SGLT1 Glucose Transport Test.
as §6
2) Compounds were serially diluted in 100% dimethyl sulfoxide (DMSO) starting at 1 mM and make a 5-folds, 8 points serials compound dilutions.
3) 3 μM [′^4C]-labeled methyl a-D-glucopyranoside was prepared with the experimental buffer.
4) The cells were treated with 49 uL of the experimental buffer, 1 μL of the gradient diluted compound and 50 μL of the 3 μM [^14C]-labeled methyl a-D-lucopyranosid solution at 37° C. for 2 hours.
5) The data were read with an isotope detector Micro beta Reader.
6) The IC50 value of the tested compound was obtained by the calculation formula: log(inhibitor) vs. response—Variable slope, using GraphPad Prism 5.0 software.

Marks after values point to notes of the source that are not given here.

In general, IC50 refers to the concentration at which inhibition is half-maximal. Low values mean greater potency, high ones weaker potency. A word on the bioavailability: it is the share of a dose that reaches the circulation, judged against a reference dose that is usually intravenous. In general, Cmax refers to the highest concentration seen after dosing. Take `CCOc1ccc(Cc2cc([C@@H]3O[C@H](SC)[C@@H](O)[C@H](O)[C@H]3O)ccc2Cl)cc1` [Sotagliflozin, reference compound]: the OGTT blood glucose level AUC0-2 hr in series [1] (glucose 2 g/kg) is 823 mmol/L/min; in series [2] (glucose 2 g/kg), 790 mmol/L/min. The Urine glucose level in series [1] (urine 0-24 h) is 2424.0**** mg/200 g, BW; in series [2] (urine 0-24 h) it was 2843.2**** mg/200 g, BW. Moreover, the Urine volume in series [1] (urine 0-24 h) is on record as 39.74**** mL/200 gBW; in series [2] (urine 0-24 h) it was 26.4**** mL/200 g, BW. Moreover, the IC50 in series [3] is 1.15 nM. In series [4] (oral 2 mg/kg), the “Oral DNAUC (AUCPO/Dose)” value was 969 nM · h/mpk. The clearance in series [4] (rat, plasma, intravenous 1 mg/kg or oral 2 mg/kg, read-out: Cl (clearance rate)) was found to be 22.6 mL/min/kg. For the same compound, in series [4] (rat, plasma, intravenous 1 mg/kg or oral 2 mg/kg, read-out: T1/2 (half-life) (converted)), the half-life is 1.27 h. Further, the Vd in series [4] (rat, plasma, intravenous 1 mg/kg or oral 2 mg/kg, read-out: Vdss (distribution volume)) amounted to 2.01 L/kg. Besides, the bioavailability in series [4] (rat, plasma, intravenous 1 mg/kg, oral 2 mg/kg, read-out: F % (oral bioavailability)) was 54.8%. In series [4] (rat, single administration, intravenous 1 mg/kg or oral 2 mg/kg, plasma), this compound displayed a Cmax of 364 nM.

For the compound `CS[C@H]1O[C@@H](c2ccc(C)c(Cc3ccc(C4=CCC5(CC4)OCCO5)cc3)c2)[C@H](O)[C@@H](O)[C@@H]1O` [WXD002], the IC50 in series [3] was found to be 1.01 nM; in series [5] it was 55.6 nM.

For the compound `CS[C@H]1OC(c2ccc(C)c(Cc3ccc(C4=CCOCC4)cc3)c2)[C@H](O)[C@@H](O)[C@@H]1O` (stereo partly drawn) [WXD004], the IC50 was 1.49 nM in series [3] and 14.1 nM in series [5].

Consider `CS[C@H]1OC(c2ccc(C)c(Cc3ccc(C4=CCCCC4)cc3)c2)[C@H](O)[C@@H](O)[C@@H]1O` (stereo partly drawn) [WXD005], for which the IC50 was found to be 1.78 nM in series [3] and 21.9 nM in series [5].

Turning to `CS[C@H]1O[C@@H](c2ccc(C)c(Cc3ccc(C4=CCC(F)(F)CC4)s3)c2)[C@H](O)[C@@H](O)[C@@H]1O` [WXD006], the IC50 came to 1.02 nM in series [3] and 39.2 nM in series [5].

`CS[C@H]1O[C@@H](c2ccc(C)c(Cc3ccc(C4=CCOCC4)s3)c2)[C@H](O)[C@@H](O)[C@@H]1O` [WXD007]: the results for the IC50 in series [3] and in series [5] were 1.35 nM and 30.1 nM, respectively.

For `COc1ccc(C2O[C@H](SC)[C@@H](O)[C@H](O)[C@H]2O)cc1Cc1ccc(C2=CCC(F)(F)CC2)cc1` (stereo partly drawn) [WXD008], the IC50 was determined as 5.4 nM in series [3] and 17.2 nM in series [5].

As for `CS[C@H]1OC(c2ccc(F)c(Cc3ccc(C4=CCC(F)(F)CC4)cc3)c2)[C@H](O)[C@@H](O)[C@@H]1O` (stereo partly drawn) [WXD009], the figures for the IC50 in series [3] and in series [5] were 4.68 nM and 233 nM, respectively.
